According to paper PMC4794757 (Bioorganic & medicinal chemistry letters, 2016):

What was measured:
hmGlu1 = hmGlu1 (Homo sapiens, UniProt Q13255); assay: Calcium mobilization mGlu1 assay; assay type: cell-based; conditions: for mGlu1 pEC50 (±SEM) / hmGlu1 EC50: calcium mobilization; for mGlu1 pEC50 (±SEM): n=3; for hmGlu1 EC50: average of n=3 in triplicate
hmGlu4 = hmGlu4 (Homo sapiens, UniProt Q14833); assay: mGlu4 counter-screen; assay type: cell-based; conditions: selectivity mGlu1 versus mGlu4
Chain of hmGlu4 (Q14833 33-912): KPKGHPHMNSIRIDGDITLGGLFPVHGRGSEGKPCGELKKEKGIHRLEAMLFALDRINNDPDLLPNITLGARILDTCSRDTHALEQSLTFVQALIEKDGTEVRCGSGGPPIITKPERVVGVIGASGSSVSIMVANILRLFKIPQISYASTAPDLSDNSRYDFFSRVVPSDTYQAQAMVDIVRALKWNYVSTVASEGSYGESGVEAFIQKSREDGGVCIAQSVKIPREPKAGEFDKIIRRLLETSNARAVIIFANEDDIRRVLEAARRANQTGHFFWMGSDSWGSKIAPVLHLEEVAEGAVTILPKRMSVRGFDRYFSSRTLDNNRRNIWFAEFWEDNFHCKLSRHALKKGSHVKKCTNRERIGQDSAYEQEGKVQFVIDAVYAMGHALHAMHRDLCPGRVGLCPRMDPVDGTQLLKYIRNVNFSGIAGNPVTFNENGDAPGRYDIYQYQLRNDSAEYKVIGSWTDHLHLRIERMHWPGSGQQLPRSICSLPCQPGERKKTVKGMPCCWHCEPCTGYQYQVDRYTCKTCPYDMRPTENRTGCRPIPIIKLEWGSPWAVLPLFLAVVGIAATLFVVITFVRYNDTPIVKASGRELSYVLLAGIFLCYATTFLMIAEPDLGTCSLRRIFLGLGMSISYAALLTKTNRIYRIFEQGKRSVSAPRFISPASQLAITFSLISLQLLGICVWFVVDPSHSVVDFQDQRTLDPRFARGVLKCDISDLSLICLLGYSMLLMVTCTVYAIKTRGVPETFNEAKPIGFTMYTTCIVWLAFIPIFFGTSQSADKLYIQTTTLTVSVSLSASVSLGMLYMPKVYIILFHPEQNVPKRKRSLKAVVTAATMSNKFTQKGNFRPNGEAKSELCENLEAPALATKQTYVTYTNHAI

Rat iv PK = assay type: in vivo; conditions: rat iv clearance versus rat microsomal prediction

Chain of hmGlu1 (Q13255 19-1194): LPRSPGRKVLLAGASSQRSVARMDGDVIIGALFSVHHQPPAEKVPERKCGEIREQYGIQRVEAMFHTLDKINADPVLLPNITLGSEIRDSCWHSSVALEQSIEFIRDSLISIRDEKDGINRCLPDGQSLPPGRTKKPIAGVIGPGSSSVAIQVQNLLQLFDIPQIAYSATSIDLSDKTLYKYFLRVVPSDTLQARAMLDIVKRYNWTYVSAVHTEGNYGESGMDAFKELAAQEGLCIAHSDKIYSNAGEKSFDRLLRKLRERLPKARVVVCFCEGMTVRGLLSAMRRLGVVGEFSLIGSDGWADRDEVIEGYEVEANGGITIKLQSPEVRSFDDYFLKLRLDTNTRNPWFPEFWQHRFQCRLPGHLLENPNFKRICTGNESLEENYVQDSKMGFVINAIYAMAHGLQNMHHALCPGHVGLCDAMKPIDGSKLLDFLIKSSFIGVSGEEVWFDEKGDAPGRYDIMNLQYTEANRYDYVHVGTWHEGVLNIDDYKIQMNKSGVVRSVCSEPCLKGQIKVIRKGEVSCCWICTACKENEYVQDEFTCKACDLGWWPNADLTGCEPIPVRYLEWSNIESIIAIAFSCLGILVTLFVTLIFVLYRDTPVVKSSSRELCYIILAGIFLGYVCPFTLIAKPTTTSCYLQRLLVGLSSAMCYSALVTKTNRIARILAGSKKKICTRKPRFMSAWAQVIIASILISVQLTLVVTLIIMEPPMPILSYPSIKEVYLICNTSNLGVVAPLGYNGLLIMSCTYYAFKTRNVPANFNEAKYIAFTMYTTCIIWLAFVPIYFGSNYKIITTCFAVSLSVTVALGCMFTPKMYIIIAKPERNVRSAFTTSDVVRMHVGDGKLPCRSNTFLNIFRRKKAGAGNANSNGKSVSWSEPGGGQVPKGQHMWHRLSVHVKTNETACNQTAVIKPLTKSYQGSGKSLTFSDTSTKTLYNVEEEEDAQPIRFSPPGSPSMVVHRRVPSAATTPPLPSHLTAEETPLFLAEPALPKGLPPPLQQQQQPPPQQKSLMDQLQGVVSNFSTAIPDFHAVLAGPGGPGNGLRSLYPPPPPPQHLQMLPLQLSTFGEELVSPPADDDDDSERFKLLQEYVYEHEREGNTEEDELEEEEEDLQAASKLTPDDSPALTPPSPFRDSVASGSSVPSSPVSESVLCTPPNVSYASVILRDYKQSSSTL

Row | mGlu1 pEC50 (±SEM) (hmGlu1) | Structure (SMILES) | also measured
1 | >5 | Cc1[nH]ccc1C(=O)Nc1ccc(N2C(=O)c3ccccc3C2=O)c(Cl)c1 [10b] | –
2 | 5.72±0.27 | Cc1ccsc1C(=O)Nc1ccc(N2C(=O)c3ccccc3C2=O)c(Cl)c1 [10d] | EC50 (hmGlu1): 1500 to 1800 nM
3 | >5 | Cc1ncoc1C(=O)Nc1ccc(N2C(=O)c3ccccc3C2=O)c(Cl)c1 [10f] | –
4 | 5.83±0.02 | Cc1ocnc1C(=O)Nc1ccc(N2C(=O)c3ccccc3C2=O)c(Cl)c1 [10g] | –
5 | >5 | Cc1ncsc1C(=O)Nc1ccc(N2C(=O)c3ccccc3C2=O)c(Cl)c1 [10h] | –
6 | – | Cc1scnc1C(=O)Nc1ccc(N2C(=O)c3ccccc3C2=O)c(Cl)c1 [10i] | potency increase relative to the unsubstituted thiazole (hmGlu1; effect of a single methyl group): ~200 fold
7 | 5.91±0.21 | Cc1cn[nH]c1C(=O)Nc1ccc(N2C(=O)c3ccccc3C2=O)c(Cl)c1 [10k] | –
8 | >5 | CN1CCC[C@@H]1C(=O)Nc1ccc(N2C(=O)c3ccccc3C2=O)c(Cl)c1 [10l] | hmGlu1 EC50 (hmGlu1): inactive
9 | >5 | CN1CCC[C@H]1C(=O)Nc1ccc(N2C(=O)c3ccccc3C2=O)c(Cl)c1 [10m] | hmGlu1 EC50 (hmGlu1): inactive
10 | 7.38±0.11 | Cc1ccc2c(c1)C(=O)N(c1ccc(NC(=O)c3ncoc3C)cc1Cl)C2=O [11a] | –
11 | – | Cc1cn[nH]c1C(=O)Nc1ccc(N2C(=O)c3cccc(F)c3C2=O)c(Cl)c1 [11aa] | Fold versus mGlu4 (hmGlu4): >16 fold
12 | 7.26±0.13 | Cc1ocnc1C(=O)Nc1ccc(N2C(=O)c3ccc(Cl)cc3C2=O)c(Cl)c1 [11c] | –
13 | 6.64±0.14 | Cc1cccc2c1C(=O)N(c1ccc(NC(=O)c3ncsc3C)cc1Cl)C2=O [11i] | –
14 | 7.30±0.15 | Cc1scnc1C(=O)Nc1ccc(N2C(=O)c3ccc(Cl)cc3C2=O)c(Cl)c1 [11j] | –
15 | 5.86±0.28 | Cc1scnc1C(=O)Nc1ccc(N2C(=O)c3cccc(Cl)c3C2=O)c(Cl)c1 [11k] | Fold versus mGlu4 (hmGlu4): >7.3 fold
16 | – | Cc1scnc1C(=O)Nc1ccc(N2C(=O)c3cccnc3C2=O)c(Cl)c1 [11n] | Fold versus mGlu4 (hmGlu4): >52 fold
17 | 6.60±0.20 | Cc1ccc2c(c1)C(=O)N(c1ccc(NC(=O)c3nccn3C)cc1Cl)C2=O [11o] | –
18 | >5 | Cc1cccc2c1C(=O)N(c1ccc(NC(=O)c3nccn3C)cc1Cl)C2=O [11p] | –
19 | 6.58±0.13 | Cn1ccnc1C(=O)Nc1ccc(N2C(=O)c3ccc(Cl)cc3C2=O)c(Cl)c1 [11q] | –
20 | >5 | Cn1ccnc1C(=O)Nc1ccc(N2C(=O)c3cccc(Cl)c3C2=O)c(Cl)c1 [11r] | –
21 | >5 | Cn1ccnc1C(=O)Nc1ccc(N2C(=O)c3cccc(F)c3C2=O)c(Cl)c1 [11t] | –
22 | >5 | Cn1ccnc1C(=O)Nc1ccc(N2C(=O)c3cccnc3C2=O)c(Cl)c1 [11u] | –
23 | 6.25±0.16 | Cc1ccc2c(c1)C(=O)N(c1ccc(NC(=O)c3[nH]ncc3C)cc1Cl)C2=O [11v] | –
24 | 5.36±0.22 | Cc1cn[nH]c1C(=O)Nc1ccc(N2C(=O)c3cccc(C)c3C2=O)c(Cl)c1 [11w] | Fold versus mGlu4 (hmGlu4): >2 fold
25 | >5 | Cc1cn[nH]c1C(=O)Nc1ccc(N2C(=O)c3cccc(Cl)c3C2=O)c(Cl)c1 [11y] | –
26 | – | Cc1ccc2c(c1)C(=O)N(c1ccc(NC(=O)c3occc3C)c(F)c1)C2=O [13a] | in vivo clearance lower than the in vitro predicted value (Rat iv PK): 8 times
27 | – | Cc1ccoc1C(=O)Nc1ccc(N2C(=O)c3cccc(C)c3C2=O)cc1F [13b] | in vivo clearance lower than the in vitro predicted value (Rat iv PK): 4 times
28 | 8.27±0.02 | Cc1ccoc1C(=O)Nc1ccc(N2C(=O)c3ccc(Cl)cc3C2=O)cc1F [13c] | –
29 | 7.71±0.06 | Cc1ccoc1C(=O)Nc1ccc(N2C(=O)c3ccc(F)cc3C2=O)cc1F [13d] | –
30 | 7.65±0.07 | Cc1ccoc1C(=O)Nc1ccc(N2C(=O)c3cccc(F)c3C2=O)cc1F [13e] | –
